Test systems include NCI-H522 lung; M19-MEL melanoma; HCT-15 colon; K-562 leukemia; LXFL 529 NSCLC; SNB-78 CNS; SW-620 colon; KM12 colon; DMS 273 small cell lung; RXF 393 renal; HCT-116 colon; BT-549 breast.
Holding throughout (test): inhibition of tumour cell growth, NCI panel, 48 h

The structures appear in SMILES notation. Several values for one entry are separate records, joined by “and”; a condition that tells them apart may be missing. Identical values can stand only once.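 Test compounds were applied to cells in 96-well plates for 48 hours at 5 doses. Here, GI50 denotes the concentration required for 50% inhibition of growth. At the TGI there is no net growth.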

For `O=C1C2Nc3ccccc3SC2C(=O)N1c1ccc(Br)cc1` (configuration not stated), the TGI with NCI-H522 lung was 89.8 µM; in the experiment on M19-MEL melanoma, more than 100 µM; in the experiment on HCT-15 colon it was more than 100 µM; in the experiment on K-562 leukemia it was more than 100 µM; with LXFL 529 NSCLC, 82.1 µM; in the experiment on SNB-78 CNS it was 99.1 µM. The TGI in the experiment with SW-620 colon is more than 100 µM; in the experiment with KM12 colon, more than 100 µM; with DMS 273 small cell lung it was more than 100 µM; in the experiment with RXF 393 renal, 61.8 µM.
As for `COc1ccc(C/C(=N/O)C(=O)NCCc2cc(Br)c(OCCCN(C)C)c(Br)c2)cc1Br`, the TGI in the experiment with NCI-H522 lung is 31.5 µM; in the experiment with M19-MEL melanoma, 33.8 µM; in the experiment on HCT-116 colon, 28 µM; in the experiment on LXFL 529 NSCLC it was 29.7 µM; with SNB-78 CNS, 68.4 µM; in the experiment on SW-620 colon it was 31.8 µM. The TGI in the experiment with KM12 colon was found to be 34.9 µM; in the experiment with DMS 273 small cell lung, 7.61 µM; in the experiment with RXF 393 renal, 38.5 µM.
On to `COC(=O)C1CCc2c1c(=O)n1c([nH]c3ccccc31)c2C#N` (configuration not stated), for which the TGI with NCI-H522 lung, in the experiment with M19-MEL melanoma, with HCT-15 colon, in the experiment on HCT-116 colon, with K-562 leukemia and with LXFL 529 NSCLC was more than 100 µM each time. For the same compound, the TGI in the experiment on SNB-78 CNS, in the experiment with SW-620 colon, in the experiment with KM12 colon, in the experiment on DMS 273 small cell lung and in the experiment with RXF 393 renal was more than 100 µM in each case.
Consider `O=C(NCCCCCCCCCCCCNC(=O)c1cccc2ccccc12)c1cccc2ccccc12`, for which the TGI in the experiment on NCI-H522 lung, with M19-MEL melanoma, in the experiment on HCT-15 colon, in the experiment on HCT-116 colon, in the experiment on K-562 leukemia and in the experiment on LXFL 529 NSCLC was more than 100 µM each time. The TGI in the experiment on SNB-78 CNS is more than 82.3 µM; in the experiment with SW-620 colon, more than 100 µM; in the experiment on KM12 colon it was more than 100 µM; in the experiment with DMS 273 small cell lung, more than 100 µM; with RXF 393 renal it was more than 100 µM.
Regarding `Cc1ccc(S(=O)(=O)OCCn2cnc3nc(NC(=O)c4ccccc4)[nH]c(=O)c32)cc1`, the TGI in the experiment with NCI-H522 lung, with M19-MEL melanoma, in the experiment with HCT-15 colon, with HCT-116 colon, in the experiment with K-562 leukemia and in the experiment on LXFL 529 NSCLC was more than 100 µM throughout. Further, the TGI with SNB-78 CNS, in the experiment on SW-620 colon, with KM12 colon, with DMS 273 small cell lung and in the experiment on RXF 393 renal was more than 100 µM in each case.
Take `CC1=Nc2ccccc2S/C1=C(/C)NNS(=O)(=O)c1ccc(C)cc1`: the TGI with NCI-H522 lung, in the experiment on M19-MEL melanoma, in the experiment with HCT-15 colon, with HCT-116 colon, with K-562 leukemia and in the experiment on LXFL 529 NSCLC was more than 100 µM in each case. Besides, the TGI in the experiment with SNB-78 CNS, in the experiment with SW-620 colon, with KM12 colon, in the experiment on DMS 273 small cell lung and in the experiment with RXF 393 renal was more than 100 µM in each case.
For `O=C(/C=C/c1cc(Cl)cc(Cl)c1O)c1cccc(O)c1`, the TGI is more than 100 µM with NCI-H522 lung; 68.7 µM in the experiment on M19-MEL melanoma; more than 100 µM in the experiment with HCT-15 colon; more than 100 µM in the experiment with HCT-116 colon; more than 100 µM in the experiment with K-562 leukemia; more than 100 µM in the experiment with LXFL 529 NSCLC. For the same compound, the TGI in the experiment on SNB-78 CNS, with SW-620 colon, in the experiment on KM12 colon, in the experiment with DMS 273 small cell lung and in the experiment with RXF 393 renal was more than 100 µM throughout.
On to `COc1cc2c(cc1OC)[C@@H](Nc1ccc(C#N)cc1)C1COC(=O)[C@@H]1C2c1cc(OC)c(O)c(OC)c1` (some centres not stated), for which the GI50 with NCI-H522 lung is 1.11 µM and 5.06 µM; in the experiment with HCT-15 colon, 910 nM and 1390 nM; in the experiment on HCT-116 colon it was 6.81 µM and 3.23 µM; in the experiment with KM12 colon it was 1430 nM. In addition, the TGI in the experiment with M19-MEL melanoma is 95 µM; in the experiment with HCT-116 colon, 25.8 µM and > 100 µM; with LXFL 529 NSCLC, 95 µM; in the experiment on SNB-78 CNS it was 95 µM; with BT-549 breast, 9.78 µM; with SW-620 colon, 18.8 µM and > 100 µM. Also, the TGI was 1.9 µM in the experiment on DMS 273 small cell lung and 35.9 µM with RXF 393 renal.
On to `Cc1cn(C2CC(O)C(COC(=O)c3ccccc3)O2)c(=O)[nH]c1=O` (configuration not stated), for which the TGI with NCI-H522 lung, with M19-MEL melanoma, in the experiment with HCT-15 colon, in the experiment on HCT-116 colon, in the experiment on K-562 leukemia and in the experiment on LXFL 529 NSCLC was more than 100 µM throughout. Also, the TGI in the experiment with SNB-78 CNS, in the experiment with SW-620 colon, in the experiment on KM12 colon, with DMS 273 small cell lung and in the experiment on RXF 393 renal was more than 100 µM in each case.
In the case of `N#Cc1c(-c2ccc(Cl)c(Cl)c2)c(-c2ccc(Cl)c(Cl)c2)nn(CC(=O)O)c1=O`, the TGI in the experiment with M19-MEL melanoma, with HCT-15 colon, in the experiment on HCT-116 colon, with K-562 leukemia, in the experiment on LXFL 529 NSCLC and in the experiment on SNB-78 CNS was more than 100 µM each time. The TGI in the experiment on SW-620 colon was more than 100 µM; with KM12 colon, more than 100 µM; with DMS 273 small cell lung, more than 100 µM; with RXF 393 renal, 53.9 µM.
As to `COC(=O)CC(NC(=O)OCc1ccccc1)C(C(C)=O)C(=O)OCc1ccccc1` (configuration not stated), the TGI in the experiment on NCI-H522 lung, in the experiment on M19-MEL melanoma, with HCT-15 colon, with HCT-116 colon, with K-562 leukemia and in the experiment on LXFL 529 NSCLC was more than 31.6 µM in each case. Besides, the TGI with SNB-78 CNS, in the experiment on SW-620 colon, in the experiment on KM12 colon and with DMS 273 small cell lung was more than 31.6 µM each time.
`C[C@@H](NC1CCCC[C@H]1O)c1ccccc1` (some centres not stated): the TGI with NCI-H522 lung, in the experiment on M19-MEL melanoma, in the experiment on HCT-15 colon, with HCT-116 colon, in the experiment with K-562 leukemia and in the experiment with SNB-78 CNS was more than 100 µM each time. The TGI with SW-620 colon, in the experiment with KM12 colon, in the experiment on DMS 273 small cell lung and in the experiment with RXF 393 renal was more than 100 µM in each case.

(Values after PubChem BioAssay (NCI).)
